The test system of data set [1] is CYP3A4. The note with it: cited from earlier work.
Data set [2] addresses T1, CYP2D6 (Homo sapiens, UniProt P10635). As to the kind of experiment: CYP2D6 fluorometric microtiter plate inhibition assay.
Data set [3] concerns the target T2, CYP1A2 (Homo sapiens, UniProt P05177).
T2 sequence (P05177 1-516): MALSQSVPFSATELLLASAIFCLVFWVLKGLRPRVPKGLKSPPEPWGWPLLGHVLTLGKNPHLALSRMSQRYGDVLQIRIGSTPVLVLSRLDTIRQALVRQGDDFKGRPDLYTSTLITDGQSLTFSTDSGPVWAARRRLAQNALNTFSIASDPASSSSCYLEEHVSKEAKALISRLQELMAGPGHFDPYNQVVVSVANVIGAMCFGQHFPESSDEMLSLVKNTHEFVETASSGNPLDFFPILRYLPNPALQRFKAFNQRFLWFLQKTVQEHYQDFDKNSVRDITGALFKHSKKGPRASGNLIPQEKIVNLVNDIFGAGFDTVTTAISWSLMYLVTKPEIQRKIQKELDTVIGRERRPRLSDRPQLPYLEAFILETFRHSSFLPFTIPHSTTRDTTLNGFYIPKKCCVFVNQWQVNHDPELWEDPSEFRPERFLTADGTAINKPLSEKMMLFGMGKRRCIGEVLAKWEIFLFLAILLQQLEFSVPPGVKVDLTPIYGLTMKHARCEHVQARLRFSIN
The data set is described as follows: CYP1A2 fluorometric microtiter plate inhibition assay.

The target of data set [4] is T3, CYP3A4 (Homo sapiens, UniProt P08684). As to the kind of experiment: CYP3A4 fluorometric microtiter plate inhibition assay.
For data set [5], the target named is T4, CYP2C9 (Homo sapiens, UniProt P11712). As to the kind of experiment: CYP2C9 fluorometric microtiter plate inhibition assay.
Data set [6] concerns CYP2C9, CYP3A4. The data set is described as follows: in vitro. The note with it: human, pH 7.5.
Data set [7] concerns CYP1A2, CYP2C9, CYP2D6, CYP3A4. As to the kind of experiment: CYP isozyme bioassays, results stated across several isozymes. The note with it: human, pH 7.5.
Data set [8] addresses T1, CYP2D6. Particulars: recombinant enzyme.
The target of data set [9] is T2, CYP1A2. Particulars: recombinant enzyme.
For data set [10], the target named is T4, CYP2C9. Particulars: recombinant enzyme.
Data set [11] has as its target T3, CYP3A4. The note with it: recombinant enzyme.
The subject of data set [12] is CYP 1A2. The note with it: cited from earlier work.
Data set [13] concerns CYP 2D6. The note with it: read-out: Literature IC50, CYP 2D6; published limits; cited from earlier work.
In data set [14] the test system is CYP 2C9. The note with it: read-out: Literature IC50, CYP 2C9; published limits; cited from earlier work.

Read-outs that look alike come from different tables or passages of the source. Some results are limits rather than exact numbers.

As a reminder, the IC50 is the concentration that gives 50% inhibition.

T1 sequence (P10635 whole entry): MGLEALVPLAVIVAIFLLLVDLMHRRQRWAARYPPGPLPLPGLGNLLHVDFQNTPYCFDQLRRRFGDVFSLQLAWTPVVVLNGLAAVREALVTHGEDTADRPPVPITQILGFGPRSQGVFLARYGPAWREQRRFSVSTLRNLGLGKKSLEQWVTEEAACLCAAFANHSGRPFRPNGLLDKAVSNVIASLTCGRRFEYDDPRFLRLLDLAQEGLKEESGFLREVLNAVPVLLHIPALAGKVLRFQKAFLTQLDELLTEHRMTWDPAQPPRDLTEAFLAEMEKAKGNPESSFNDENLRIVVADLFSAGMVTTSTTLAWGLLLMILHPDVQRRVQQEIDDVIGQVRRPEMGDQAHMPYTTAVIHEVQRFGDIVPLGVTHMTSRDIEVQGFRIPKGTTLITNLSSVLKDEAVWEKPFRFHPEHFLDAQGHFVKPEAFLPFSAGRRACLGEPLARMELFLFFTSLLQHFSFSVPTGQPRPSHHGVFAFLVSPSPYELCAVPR
T3 sequence (P08684 whole entry): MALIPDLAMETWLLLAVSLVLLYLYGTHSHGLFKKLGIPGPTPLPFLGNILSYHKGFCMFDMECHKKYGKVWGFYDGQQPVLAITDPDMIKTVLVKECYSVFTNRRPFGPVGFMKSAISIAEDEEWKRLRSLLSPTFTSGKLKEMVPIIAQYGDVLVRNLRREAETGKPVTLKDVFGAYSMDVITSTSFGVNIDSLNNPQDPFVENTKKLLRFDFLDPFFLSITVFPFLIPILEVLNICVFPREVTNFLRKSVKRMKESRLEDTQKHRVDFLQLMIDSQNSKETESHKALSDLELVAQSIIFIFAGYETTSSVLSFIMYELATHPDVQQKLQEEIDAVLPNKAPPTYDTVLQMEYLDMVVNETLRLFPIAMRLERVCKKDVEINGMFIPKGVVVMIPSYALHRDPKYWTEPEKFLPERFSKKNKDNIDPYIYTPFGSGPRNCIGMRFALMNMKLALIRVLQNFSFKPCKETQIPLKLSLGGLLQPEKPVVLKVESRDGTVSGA
T4 sequence (P11712 whole entry): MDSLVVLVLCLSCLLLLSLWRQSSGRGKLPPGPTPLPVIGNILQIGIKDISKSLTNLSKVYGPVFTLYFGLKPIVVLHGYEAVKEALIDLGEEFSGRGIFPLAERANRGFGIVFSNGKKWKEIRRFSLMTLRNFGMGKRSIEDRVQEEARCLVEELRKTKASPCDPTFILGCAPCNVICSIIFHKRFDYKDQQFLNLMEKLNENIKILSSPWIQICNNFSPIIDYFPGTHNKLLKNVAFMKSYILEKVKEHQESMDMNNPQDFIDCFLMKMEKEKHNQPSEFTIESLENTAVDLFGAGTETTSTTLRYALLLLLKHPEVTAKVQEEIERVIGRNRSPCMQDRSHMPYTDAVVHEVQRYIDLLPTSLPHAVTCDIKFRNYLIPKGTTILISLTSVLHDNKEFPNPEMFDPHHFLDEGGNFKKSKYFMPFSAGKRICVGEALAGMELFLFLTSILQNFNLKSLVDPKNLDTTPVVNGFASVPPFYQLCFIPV

With `CC(=O)O[C@@H]1C[C@@]23C[C@@]24CC[C@H](O[C@@H]2OC[C@@H](O)[C@H](O)[C@H]2O)C(C)(C)[C@@H]4CC[C@H]3[C@]2(C)C[C@@H]3O[C@]4(C[C@@H](C)[C@@H]3[C@@]12C)OC[C@@]1(C)O[C@@H]41` [26-deoxyactein], in data set [1] (read-out: IC50 for CYP3A4 inhibition, Tsukamoto et al.), the IC50 is 100 µM.
For `CC(=O)O[C@@H]1C[C@@]23C[C@@]24CC[C@H](O[C@@H]2OC[C@@H](O)[C@H](O)[C@H]2O)C(C)(C)[C@@H]4CC[C@H]3[C@]2(C)C[C@@H]3O[C@]4(C[C@@H](C)[C@@H]3[C@@]12C)O[C@H](O)[C@@]1(C)O[C@@H]41` [Actein, actein], the IC50 in data set [2] was 51.1 µM; in data set [3], > 100 µM; in data set [4], 35.2 µM; in data set [5], 25 µM; in data set [6], 16.9 to 33.8 µM.
In the case of `COc1cc(/C=C/C(=O)O[C@H](C(=O)O)[C@](O)(Cc2ccc(O)c(O)c2)C(=O)O)ccc1O` [CAA, Cimicifugic acid A], the IC50 in data set [2] was 9 µM; in data set [3] it was 7.2 µM; in [7], 1.8 to 12.6 µM; in data set [4], 9.7 µM; in [5], 8.3 µM.
For `COc1ccc(/C=C/C(=O)O[C@H](C(=O)O)[C@](O)(Cc2ccc(O)c(O)c2)C(=O)O)cc1O` [CAB, Cimicifugic acid B] the same measures were 12.6 µM, 7.35 µM, 1.8 to 12.6 µM, 9.8 µM and 12.5 µM.
For `CC(=O)O[C@@H]1C[C@@]23C[C@@]24CC[C@H](O[C@@H]2OC[C@@H](O)[C@H](O)[C@H]2O)C(C)(C)[C@@H]4CC[C@H]3[C@]2(C)C[C@@H]3O[C@@]4(C[C@@H](C)[C@@H]3[C@@]12C)OC[C@@]1(C)O[C@@H]41` [Deoyxactein, 23-epi-26-deoxyactein], the IC50 in data set [8] is 100 µM; in data set [9], > 100 µM; in data set [10], 25.9 µM; in data set [11], 28.7 µM.
On to `O=C(/C=C/c1ccc(O)c(O)c1)O[C@H](C(=O)O)[C@](O)(Cc1ccc(O)c(O)c1)C(=O)O` [Fukinolic acid, fukinolic acid], for which the IC50 is 5.4 µM in data set [2]; 1.8 µM in [3]; 1.8 to 12.6 µM in data set [7]; 7.2 µM in [4]; 7.1 µM in data set [5].
For the molecule `Cc1nc2c([nH]1)c(=O)n(C)c(=O)n2Cc1ccco1` [Furafylline, furafylline], in data set [12] (read-out: Literature IC50, CYP 1A2, published limits), the IC50 is […].
Take `CC(=O)N1CCN(c2ccc(OCC3COC(Cn4ccnc4)(c4ccc(Cl)cc4Cl)O3)cc2)CC1` (stereo not drawn) [Ketoconazole, ketoconazole]: in data set [1] (read-out: Literature IC50, CYP 3A4, published limits), the IC50 was […].
`C=C[C@H]1C[N@@]2CC[C@H]1C[C@@H]2[C@@H](O)c1ccnc2ccc(OC)cc12` [Quindine, quinidine]: the IC50 in data set [13] was […].
As for `Nc1ccc(S(=O)(=O)Nc2ccnn2-c2ccccc2)cc1` [Sulfaphenazole, sulfaphenazole], the IC50 in [14] is […].
Turning to `Oc1ccc(/C=C/c2cc(O)cc(O)c2)cc1` [resveratrol], the IC50 in data set [12] (read-out: Inhibitory IC50 in CYP 1A2) is 1.89 µM.

Source of the values: paper PMC3761975 (Current drug safety, 2010).
